Experimental data as given in paper PMC3608651, “A Broad Profile of Co-Dominant Epitopes Shapes the Peripheral Mycobacterium tuberculosis Specific CD8+ T-Cell Immune Response in South African Patients with Active Tuberculosis” (PLoS ONE, 2013).

Columns and labels:
Type in all cases: binding
HLA-A*02:01 = HLA-A*02:01 (Homo sapiens, UniProt P04439, D140Y/D185E/D98H/E176V/E277Q/G131W/G231S/I119V/I121R/I166T/I218V/L300P/L318F/N151K/N90K/P208A/P217A/Q86G/Q94H/R138H/R169H/T345S); settings: percent relative the binding of positive control peptide […]; plate-bound monomer 0.5 µg/ml; duplicated experiments; positive binder >40%
HLA-A*30:02 = HLA-A*30:02 (Homo sapiens, UniProt P04439, D101N/D140H/D185E/E176R/F33S/G80R/H175R/K168Q/Q94H/R138E/R41S/V100E); settings: percent relative the binding of positive control peptide […]; duplicated experiments; positive binder >40%
HLA-A*30:01 = HLA-A*30:01 (Homo sapiens, UniProt P04439, D140H/D185E/E176W/F33S/G80R/H175R/K168Q/R138E/R41S); settings: percent relative the binding of positive control peptide […]; duplicated experiments; positive binder >40%
HLA-B*58:01 = HLA-B*58:01 (Homo sapiens, UniProt P01889, A329T/C349S/D201E/D98Y/E176V/E187L/E204Q/E69T/G107R/I218V/I90N/K202T/L105A/L119I/N104I/N87E/Q89R/Q94S/R106L/R155S/R180L/R86G/S101N/S121R/S35A/S48A/T118I/V127L/V306I/V36M/Y140S/Y91M); settings: percent relative the binding of positive control peptide […]; duplicated experiments; positive binder >40%
HLA-A*68:01 = HLA-A*68:01 (Homo sapiens, UniProt P04439, A269V/D185E/E176V/E277Q/E87N/F33Y/G231S/I121M/I166T/I218V/L180W/L300P/L318F/N151K/P208A/P217A/Q86R/R169H/T345S); settings: percent relative the binding of positive control peptide […]; duplicated experiments; positive binder >40%
HLA-B*07:02 = HLA-B*07:02 (Homo sapiens, UniProt P01889); settings: percent relative the binding of positive control peptide […]; duplicated experiments; positive binder >40%
HLA-A*24:02 = HLA-A*24:02 (Homo sapiens, UniProt P04439, D101N/D140Y/D185E/E176V/E190D/F33S/G103R/G107R/I119L/I121M/I306V/K335N/L105A/L180Q/L300P/N151K/N90K/Q86E/Q94H/R106L/R138H/R89G/T104I/T345S/V100E/W191G/Y123F); settings: percent relative the binding of positive control peptide […]; duplicated experiments; positive binder >40%
HLA-C*07:01 = HLA-C*07:01 (Homo sapiens, UniProt P10321, K90N/S123Y); settings: percent relative the binding of positive control peptide […]; duplicated experiments; positive binder >40%

Substance | Bind A*02:01 (HLA-A*02:01) [%] | Bind A*30:02 (HLA-A*30:02) [%] | Bind A*30:01 (HLA-A*30:01) [%] | Bind B*58:01 (HLA-B*58:01) [%] | Bind A*68:01 (HLA-A*68:01) [%] | Bind B*07:02 (HLA-B*07:02) [%] | Bind A*24:02 (HLA-A*24:02) [%] | Bind C*07:01 (HLA-C*07:01) [%]
LSIVMPVGG | 33 | 46 | 0 | 29 | 0 | 0 | 0 | 0
W YYQ SG LSI | 37 | 0 | 18 | 0 | 0 | 6 | 143 | 13
NAMKGDLQS | 14 | 0 | 6 | 0 | 15 | 6 | 45 | 20
YNYPTMLDH [Rv0288_6–14m3] |  |  |  |  |  |  |  | 0
GLSMAGSSA | 75 | 0 | 0 | 0 | 0 | 31 | 0 | 0
QNLGAEIAV [Rv0288_26–34m1] | 28 |  |  | 0 |  |  |  | 
GGHNAVFNF | 40 | 0 | 0 | 52 | 0 | 19 | 34 | 22
NGW DINTPA | 87 | 0 | 8 | 0 | 4 | 21 | 36 | 14
GANIPAEFL | 41 | 0 | 0 | 16 | 0 | 0 | 0 | 0
VRAYHSMSS [Rv0288_66–74m1] |  |  |  |  |  |  |  | 3
DLVRAYHSM [Rv0288_64–72m1] |  |  |  |  | 4 |  | 0 | 
YNYPTMLGH [Rv0288_6–14m1] |  |  |  |  |  |  |  | 0
TLQNLGAEI [Rv0288_24–32m1] | 26 |  |  |  |  |  | 4 | 
YNYPAMLDH [Rv0288_6–14m2] |  |  |  |  |  |  |  | 0
TMLDHAGDM [Rv0288_10–18m3] | 24 | 0 |  |  |  |  | 14 | 
